Assay results published in ChEMBL document CHEMBL1201862, “PubChem BioAssay data set” (2004).
Active and inactive are the calls of the source.

Columns and labels:
[1] = AlphaScreen signal interference compounds, dose response, artefact control for ARNT-TACC3 interaction inhibitor project, biochemical, luminescence, cherry-pick (AID 651705); type: functional;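 note: AlphaScreen bead proximity signal that flags compounds interfering with the detection technology; potency reflects signal decrease which marks the compound as an assay artifact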
[2] = target: T1, Long-chain-fatty-acid--AMP ligase FadD28 (Mycobacterium tuberculosis, UniProt P9WQ59); experiment: Fluorescence polarization aasay to screen for inhibitors that compete for the binding of FadD28 to a bisubstrate Measured in Biochemical System Using Plate Reader - 2147-01_Inhibitor_Dose_CherryPick_Activity.; type: functional, Mycobacterium tuberculosis H37Rv
T1 sequence (P9WQ59 whole entry): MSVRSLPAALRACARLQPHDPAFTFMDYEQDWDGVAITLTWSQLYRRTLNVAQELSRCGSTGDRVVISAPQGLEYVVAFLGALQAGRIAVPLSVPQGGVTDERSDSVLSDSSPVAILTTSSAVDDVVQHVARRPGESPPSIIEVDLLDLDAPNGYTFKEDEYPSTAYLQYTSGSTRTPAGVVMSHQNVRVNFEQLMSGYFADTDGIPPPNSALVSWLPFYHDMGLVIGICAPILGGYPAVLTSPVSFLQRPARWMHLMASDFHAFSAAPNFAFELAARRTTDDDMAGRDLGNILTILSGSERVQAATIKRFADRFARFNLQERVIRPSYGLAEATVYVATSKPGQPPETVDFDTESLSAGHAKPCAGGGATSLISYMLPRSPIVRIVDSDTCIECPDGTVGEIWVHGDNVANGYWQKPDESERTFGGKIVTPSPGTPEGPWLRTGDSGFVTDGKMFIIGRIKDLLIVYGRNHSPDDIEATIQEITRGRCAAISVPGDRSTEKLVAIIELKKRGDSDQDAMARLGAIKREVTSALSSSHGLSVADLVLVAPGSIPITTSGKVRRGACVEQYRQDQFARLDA

[3] = target: T2, Small ubiquitin-related modifier 1 (Homo sapiens, UniProt P63165); experiment: inhibitors of SUMO1 peptide binding, dose response, biochemical, fluorescence polarization, uHTS hits (AID 624382); type: functional; settings: read-out: IC50_Mean
T2 sequence (P63165 whole entry): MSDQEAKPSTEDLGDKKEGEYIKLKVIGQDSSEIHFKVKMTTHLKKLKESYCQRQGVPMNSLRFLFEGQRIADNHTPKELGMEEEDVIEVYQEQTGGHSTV

[4] = target: T2, Small ubiquitin-related modifier 1; experiment: inhibitors of SUMO1 partner interactions, dose response, biochemical, FRET (AID 624383); type: functional; settings: read-out: IC50_Mean
[5] = human group III sPLA2 inhibitors, dose response, biochemical, QFRET, IC50 (AID 743457);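 note: green fluorescence rise as the enzyme cleaves BODIPY PC-A2 in liposomes; potency for inhibition of the enzyme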
[6] = target: T3, Probable nicotinate-nucleotide adenylyltransferase (Staphylococcus aureus (strain N315), UniProt P65502); type: functional, Staphylococcus aureus subsp. aureus N315;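 for IC50 Mean: confirmatory dose-response retesting of NadD inhibitor hits first found in an ultra-high-throughput screen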
T3 sequence (P65502 whole entry): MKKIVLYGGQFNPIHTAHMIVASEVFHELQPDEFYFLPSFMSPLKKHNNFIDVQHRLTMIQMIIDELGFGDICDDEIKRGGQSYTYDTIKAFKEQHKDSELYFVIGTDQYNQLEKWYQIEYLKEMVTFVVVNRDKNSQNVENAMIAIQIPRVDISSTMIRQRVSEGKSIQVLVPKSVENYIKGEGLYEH

[7] = target: T3, Probable nicotinate-nucleotide adenylyltransferase; type: functional, Staphylococcus aureus subsp. aureus N315; settings: read-out: IC50_Mean

COc1cc(CNCc2ccccn2)ccc1OCC(=O)NC(C)(C)C
AC50 [1]: 90.6 µM (active)

CCc1cccc2c(C(=O)CN3C(=O)C(=O)N(C4CCCC4)C3=O)c[nH]c12
AC50 [2]: 32.3 µM (active)

COc1cccc2sc(Nc3nc(-c4cc5ccccc5oc4=O)cs3)nc12
IC50 [3]: > 66.6 µM (inactive) | IC50 [4]: 2.42 µM (active)

CCN(CC)S(=O)(=O)c1cccc(C(=O)OCC(=O)c2ccc3c(c2)OCCO3)c1
AC50 [2]: > 100 µM (inactive)

COC(=O)c1ccc(CSc2ccc3nnc(-c4ccccn4)n3n2)o1
AC50 [1]: 98.1 µM (active)

COc1ccc(N=Nc2nc(-c3ccccc3)c(-c3ccccc3)[nH]2)cc1
IC50 [5]: > 122 µM (inactive)

NN=C1c2ccccc2C(=O)C1C(=O)C(c1ccccc1)c1ccccc1 (centres undefined)
IC50 [6]: 13.8 µM (active) | IC50 [7]: 25.5 µM (active)
